Reference: ChEMBL document CHEMBL1201862, “PubChem BioAssay data set” (2004)
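These data come from cells grown in 96-well plates and exposed to compound for 48 hours at five concentrations. Abbreviation: GI50, concentration required for 50% inhibition of growth.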 Active and inactive are the calls of the source. Cut-off read from the data, not from the text of the source: active = GI50 up to about 1.1 µM and inactive = higher.

Assays:
Assay in all cases: growth of human tumour cells (NCI), 48 h
[1] = system: RPMI-8226
[2] = system: MOLT-4
[3] = system: SNB-19
[4] = system: EKVX
[5] = system: UACC-62
[6] = system: RXF 393
[7] = system: SF-539
[8] = system: A549
[9] = system: K562
[10] = system: HOP-92
[11] = system: HCT-116
[12] = system: TK-10
[13] = system: SK-MEL-2
[14] = system: CAKI-1
[15] = system: OVCAR-4
[16] = system: SK-OV-3
[17] = system: SR

Measured: GI50

O=C1c2ccccc2C(=O)N1CCCOCc1cnc(O)nc1O
inactive: [1] > 100 µM | [2] > 100 µM | [3] > 100 µM | [4] > 100 µM | [5] > 100 µM | [6] > 100 µM | [7] > 100 µM | [8] > 100 µM | [9] > 100 µM | [10] > 100 µM | [11] > 100 µM | [12] > 100 µM | [13] > 100 µM | [14] > 100 µM | [15] > 100 µM | [16] > 100 µM

O=C1C(=O)N(c2ccc(Cl)cc2Cl)C(=O)C(=O)C1c1nc2ccccc2o1
inactive: [1] > 100 µM | [2] > 100 µM | [3] > 100 µM | [4] > 100 µM | [5] > 100 µM | [17] > 100 µM | [7] > 100 µM | [8] > 100 µM | [9] > 100 µM | [10] > 100 µM | [11] > 100 µM | [12] > 100 µM | [13] > 100 µM | [14] > 100 µM | [15] > 100 µM | [16] > 100 µM

CC1=NN(c2ccccc2)C(=O)C1/N=N/c1ccc(Br)c(C)c1 (stereo not drawn)
inactive: [1] > 100 µM | [2] 71.3 µM | [3] > 100 µM | [4] > 100 µM | [5] > 100 µM | [6] > 100 µM | [7] > 100 µM | [8] > 100 µM | [9] > 100 µM | [10] > 100 µM | [11] > 100 µM | [12] > 100 µM | [13] > 100 µM | [14] > 100 µM | [15] > 100 µM | [16] > 100 µM

CN(C)CCN1N=Nc2cccc3cccc1c23
inactive: [1] > 43.9 µM | [2] 35.2 µM | [3] > 100 µM | [4] > 100 µM | [5] > 100 µM | [17] 15.7 µM | [7] > 100 µM | [8] > 100 µM | [9] > 65.2 µM | [10] > 100 µM | [11] 57.1 µM | [12] > 100 µM | [13] > 100 µM | [14] 69.7 µM | [15] 72.9 µM | [16] > 100 µM

CCCC1C(=O)CCc2c(OC)ccc(OC)c21 (stereo not drawn)
inactive: [1] 65.9 µM | [2] 49.1 µM | [3] 99.8 µM | [4] > 100 µM | [5] > 100 µM | [6] > 100 µM | [7] > 100 µM | [8] > 100 µM | [9] 59 µM | [11] 51.9 µM | [12] > 100 µM | [13] > 100 µM | [14] > 100 µM | [15] > 100 µM | [16] > 100 µM

CC(C)(C)NC(=O)C12C3C4C1C1C2C3C41I (stereo not drawn)
inactive: [1] > 100 µM | [2] > 100 µM | [3] > 100 µM | [17] > 100 µM | [7] > 100 µM | [8] > 100 µM | [9] > 100 µM | [10] 84.1 µM | [11] > 100 µM | [12] > 100 µM | [13] > 100 µM | [14] > 100 µM

CSc1ccc(-c2cn3ccsc3n2)c(O)c1
inactive: [1] 13.8 µM | [2] 30.5 µM | [3] > 61.5 µM | [4] > 81.3 µM | [5] 69.7 µM | [17] 40.6 µM | [7] 32.7 µM | [8] > 90.8 µM | [9] 26.4 µM | [10] 47.3 µM | [11] 30.3 µM | [12] 61.8 µM | [13] > 85.3 µM | [14] > 100 µM | [15] > 49.4 µM | [16] > 82.4 µM

O=C(NCCCN1CCN(CCCNC(=O)Nc2cc(Cl)ccc2Cl)CC1)Nc1cc(Cl)ccc1Cl
inactive: [1] 80 µM | [2] > 100 µM | [3] 46.3 µM | [5] 64.7 µM | [6] > 100 µM | [7] 44.5 µM | [8] > 100 µM | [9] 35.5 µM | [10] 50.6 µM | [11] 79.3 µM | [12] > 100 µM | [13] > 100 µM | [14] > 100 µM | [15] 34 µM | [16] 97.9 µM

NC1=NCCC1(c1ccccc1)c1ccccn1 (stereo not drawn)
inactive: [1] > 100 µM | [2] > 100 µM | [3] > 100 µM | [4] > 100 µM | [5] > 100 µM | [6] > 100 µM | [7] > 100 µM | [8] > 100 µM | [9] > 100 µM | [10] > 100 µM | [11] > 100 µM | [12] > 100 µM | [13] > 100 µM | [14] > 100 µM | [15] > 100 µM | [16] > 100 µM

COc1ccc([C@@H]2C[C@@H]3C(=O)OC(=O)[C@@H]3c3c2c2ccccc2n3C)cc1
inactive: [1] > 100 µM | [2] > 100 µM | [3] > 100 µM | [4] > 100 µM | [5] > 100 µM | [17] > 100 µM | [7] > 100 µM | [8] > 100 µM | [9] > 100 µM | [10] > 100 µM | [11] > 100 µM | [12] > 100 µM | [13] > 100 µM | [14] > 100 µM | [15] > 100 µM | [16] > 100 µM

Nc1c(-c2ccc(Cl)cc2)[n+]([O-])c2ccccc2[n+]1[O-]
inactive: [1] 34.5 µM | [2] 27.3 µM | [3] 34.8 µM | [4] > 100 µM | [5] > 100 µM | [7] > 100 µM | [8] > 100 µM | [9] 49.3 µM | [10] 28.1 µM | [12] > 100 µM | [13] > 100 µM | [14] > 100 µM | [15] 69.3 µM | [16] > 100 µM

CC[N+](CC)(CC)Cc1cn(S(=O)(=O)c2ccccc2)c2ccccc12
inactive: [1] > 100 µM | [2] > 100 µM | [3] > 100 µM | [5] > 100 µM | [17] > 100 µM | [7] > 100 µM | [8] > 100 µM | [9] > 100 µM | [10] > 100 µM | [11] > 100 µM | [12] > 100 µM | [13] > 100 µM | [14] > 100 µM | [15] > 100 µM

CCCCCCCCCCCCCC/C(C(=O)OC)=C(/O)C(=O)OCC
inactive: [1] > 100 µM | [2] 37.6 µM | [3] 40.9 µM | [4] 37.2 µM | [5] 16.9 µM | [6] 99.5 µM | [7] > 100 µM | [8] 26.4 µM | [9] 27 µM | [10] 25.5 µM | [11] 47.6 µM | [12] 47.3 µM | [13] 16.6 µM | [14] 31.4 µM | [15] 58.9 µM | [16] 35.3 µM
